Measured values published in ChEMBL document CHEMBL4316618, “Synthesis and pharmacological evaluation of novel arylpiperazine oxicams derivatives as potent analgesics without ulcerogenicity” (Bioorg Med Chem, 2019).

What was measured:
Mus musculus [1] = experiment: Potency index, ratio of piroxicam ED50 to test compound ED50 for analgesic activity in ip dosed formalin-induced nociception Albino Swiss CD-1 mouse model assessed as reduction in time spent on licking formalin injected hind paw during inflammatory phase; format: functional
Mus musculus [2] = experiment: (§1) Analgesic activity in formalin-induced nociception Albino Swiss CD-1 mouse model assessed as time spent on licking formalin injected hind paw during neurogenic phase at 10 mg/kg, ip pretreated for 30 mins followed by formalin induction measured up to 5 mins (reference value: 60.23 +/- 5.12 s); format: functional
Mus musculus [3] = experiment: (§2) Analgesic activity in formalin-induced nociception Albino Swiss CD-1 mouse model assessed as time spent on licking formalin injected hind paw during neurogenic phase at 20 mg/kg, ip pretreated for 30 mins followed by formalin induction measured up to 5 mins (reference value: 60.23 +/- 5.12 s); format: functional
Mus musculus [4] = experiment: Analgesic activity in formalin-induced nociception Albino Swiss CD-1 mouse model assessed as time spent on licking formalin injected hind paw during neurogenic phase at 5 mg/kg, ip pretreated for 30 mins followed by formalin induction measured up to 5 mins (reference value: 60.23 +/- 5.12 s); format: functional
Mus musculus [5] = experiment: as §1, with “inflammatory” for “neurogenic”, “after 15” for “up”, “30” for “5”, “138.5” for “60.23”, “8.55” for “5.12”; format: functional
Mus musculus [6] = experiment: as §2, with “inflammatory” for “neurogenic”, “after 15” for “up”, “30” for “5”, “138.5” for “60.23”, “8.55” for “5.12”; format: functional
[7] = Neurotoxicity in Albino Swiss CD-1 mouse assessed as motor impairment at 20 mg/kg, ip measured for 1 min at 6 to 24 rpm by rotarod test; format: toxicity, organism-based; conditions: in vivo
Mus musculus [8] = experiment: Analgesic activity in ip dosed formalin-induced nociception Albino Swiss CD-1 mouse model assessed as reduction in time spent on licking formalin injected hind paw during neurogenic phase pretreated for 30 mins followed by formalin induction measured up to 5 mins; format: functional; conditions: Swiss CD-1, ip
[9] = Acute toxicity in Albino Swiss CD-1 mouse assessed as mortality at 1000 mg/kg, ip measured after 72 hrs relative to control; format: organism-based; conditions: in vivo
[10] = Acute toxicity in Albino Swiss CD-1 mouse assessed as mortality at 250 mg/kg, ip measured after 72 hrs relative to control; format: organism-based; conditions: in vivo
[11] = Acute toxicity in Albino Swiss CD-1 mouse assessed as mortality at 500 mg/kg, ip measured after 72 hrs relative to control; format: organism-based; conditions: in vivo
Mus musculus [12] = experiment: Analgesic activity in ip dosed formalin-induced nociception Albino Swiss CD-1 mouse model assessed as reduction in time spent on licking formalin injected hind paw during inflammatory phase pretreated for 30 mins followed by formalin induction measured after 15 to 30 mins; format: functional; conditions: Swiss CD-1, ip
Mus musculus [13] = experiment: (§3) Analgesic activity in formalin-induced nociception Albino Swiss CD-1 mouse model assessed as time spent on licking formalin injected hind paw during inflammatory phase at 5 mg/kg, ip pretreated for 30 mins followed by formalin induction measured after 15 to 30 mins (reference value: 138.5 +/- 8.55 s); format: functional
[14] = Acute toxicity in ip dosed Albino Swiss CD-1 mouse measured for 24 hrs; format: organism-based; conditions: in vivo
Mus musculus [15] = experiment: Sedative activity in ip dosed Albino Swiss CD-1 mouse assessed as effect on locomotor activity by measuring reduction in number of light beam crossings treated for 30 mins measured for next 30 mins; format: organism-based; conditions: in vivo, 0.5 h
[16] = Acute toxicity in Albino Swiss CD-1 mouse assessed as mortality at 2000 mg/kg, ip measured after 72 hrs relative to control; format: organism-based; conditions: in vivo
[17] = Ulcerogenic activity in Wistar (Krf:(WI) WU) rat assessed as change in gastric mucosa at 25 mg/kg measured after 24 hrs by stereo microscopic analysis; format: toxicity, organism-based; conditions: in vivo
Mus musculus [18] = experiment: as §3, with “at 30” for “at 5”; format: functional
Mus musculus [19] = experiment: Analgesic activity in formalin-induced nociception Albino Swiss CD-1 mouse model assessed as time spent on licking formalin injected hind paw during neurogenic phase at 30 mg/kg, ip pretreated for 30 mins followed by formalin induction measured up to 5 mins (reference value: 60.23 +/- 5.12 s); format: functional

| Structure (SMILES) | Ratio ED50 (Mus musculus [1]) | Time (Mus musculus [2]) [s] | Time (Mus musculus [3]) [s] | Time (Mus musculus [4]) [s] | Time (Mus musculus [5]) [s] | Time (Mus musculus [6]) [s] | Activity [7] | ED50 (Mus musculus [8]) [mg/kg] | mortality at 72 h [9] [%] | mortality at 72 h [10] [%] | mortality at 72 h [11] [%] | ED50 (Mus musculus [12]) [mg/kg] | Time (Mus musculus [13]) [s] | LD50 at 24 h [14] [mg/kg] | ED50 (Mus musculus [15]) [mg/kg] | mortality at 72 h [16] [%] | Activity [17] | Time (Mus musculus [18]) [s] | Time (Mus musculus [19]) [s] |
| --- | --- | --- | --- | --- | --- | --- | --- | --- | --- | --- | --- | --- | --- | --- | --- | --- | --- | --- | --- |
| O=C(C1=C(O)c2ccccc2S(=O)(=O)N1CC(=O)N1CCN(c2ccccc2)CC1)c1ccccc1 | 2 - 5 | 34.29 | 25.83 | 41.17 | 68.86 | 49.71 | Non-Toxic | 13.9 | 83.3 | 16.7 | 50 | 8.85 | 81.13 | 500 | 31.55 |  |  |  |  |
| Cc1ccc(C(=O)C2=C(O)c3ccccc3S(=O)(=O)N2CCCN2CCN(c3ccccc3)CC2)cc1 | 2 - 5 | 51.17 | 47.67 | 59 | 55.86 | 35.33 | Non-Toxic |  |  |  |  | 4.01 | 62.57 | > 2000 | 35.42 | 0 |  |  |  |
| Cc1ccc(C(=O)C2=C(O)c3ccccc3S(=O)(=O)N2CC(=O)N2CCN(c3ccccc3)CC2)cc1 | 2 - 5 | 39.75 | 31 | 44.86 | 46.86 | 28.86 | Non-Toxic | 22.8 | 83.3 | 0 | 66.7 | 7.22 | 90 | 569 | 40.34 |  | Non-Toxic |  |  |
| O=C(C1=C(O)c2ccccc2S(=O)(=O)N1CCCN1CCN(c2cccc(C(F)(F)F)c2)CC1)c1ccccc1 | 2 - 5 | 42.86 | 35.11 | 51.5 | 59.17 | 48.6 | Non-Toxic | 27 |  |  |  | 7.14 | 78.5 | > 2000 | 38.41 | 0 |  |  |  |
| O=C(C1=C(O)c2ccccc2S(=O)(=O)N1CC(=O)N1CCN(c2ncccn2)CC1)c1ccc(Br)cc1 | 2 - 5 | 31.38 | 22.44 | 44.5 | 63.75 | 48.6 | Non-Toxic | 11.9 |  |  |  | 8.25 | 81.63 | > 2000 | 29.89 | 0 | Non-Toxic |  |  |
| O=C(C1=C(O)c2ccccc2S(=O)(=O)N1CCCN1CCN(c2ccccc2)CC1)c1ccccc1 | 2 - 5 | 28.25 | 26.29 | 40 | 63 | 44.14 | Non-Toxic | 11.6 |  |  |  | 6.18 | 71.6 | > 2000 | 34.12 | 0 |  |  |  |
| COc1ccccc1N1CCN(C(=O)CN2C(C(=O)c3ccccc3)=C(O)c3ccccc3S2(=O)=O)CC1 | 2 - 5 | 45.63 | 38.29 | 50.71 | 63.13 | 55.71 | Non-Toxic |  |  |  |  | 7.93 | 77.29 | > 2000 | 32.1 | 0 |  |  |  |
| COc1ccccc1N1CCN(CCCN2C(C(=O)c3ccccc3)=C(O)c3ccccc3S2(=O)=O)CC1 | 2 - 5 | 55.71 | 51.4 | 55.83 | 68.17 | 35.86 | Non-Toxic |  |  |  |  | 9.03 | 92.17 | > 2000 | 33.18 | 0 |  |  |  |
| O=C(C1=C(O)c2ccccc2S(=O)(=O)N1CC(=O)N1CCN(c2ccccc2)CC1)c1ccc(F)cc1 | 2 - 5 | 32 | 24.25 | 44.8 | 55.29 | 30.67 | Non-Toxic | 12.8 | 66.7 |  | 0 | 6.24 | 75.78 | 957 | 26.15 | 100 | Non-Toxic |  |  |
| CN1C(C(=O)Nc2ccccn2)=C(O)c2ccccc2S1(=O)=O [PIROXICAM] |  | 58.71 | 59.16 | 61.31 | 108.25 | 67.43 |  |  |  |  |  | 18.9 | 116.1 | 360 |  |  | Toxic | 37.57 | 49.75 |
